Measured values reported in ChEMBL document CHEMBL1156052, “Discovery of 1-[4-(3-chlorophenylamino)-1-methyl-1H-pyrrolo[3,2-c]pyridin-7-yl]-1-morpholin-4-ylmethanone (GSK554418A), a brain penetrant 5-azaindole CB2 agonist for the treatment of chronic pain” (J Med Chem, 2009).
Values after ≈ are worked out from the molar mass of the structure shown. Active and inactive are the calls of the source. The rule behind the calls is not given here.

Experiments:
Cannabinoid receptor 1 [1] = target: T1, Cannabinoid receptor 1 (Homo sapiens, UniProt P21554); test: Agonist activity at human recombinant cannabinoid CB1 receptor expressed in MMY23 Saccharomyces cerevisiae assessed as degradation of FDGlu to fluorescein at 30 uM after 24 hrs by spectrofluorimetry; assay type: functional
Cannabinoid receptor 2 [2] = target: T2, Cannabinoid receptor 2 (Homo sapiens, UniProt P34972); test: Agonist activity at human recombinant cannabinoid CB2 receptor expressed in MMY23 Saccharomyces cerevisiae assessed as degradation of FDGlu to fluorescein after 24 hrs by spectrofluorimetry; assay type: functional
Cannabinoid receptor 1 [3] = target: T1, Cannabinoid receptor 1; test: Agonist activity at human recombinant cannabinoid CB1 receptor expressed in MMY23 Saccharomyces cerevisiae assessed as degradation of FDGlu to fluorescein after 24 hrs by spectrofluorimetry; assay type: functional
Homo sapiens = species on record: Homo sapiens; test: Selectivity ratio of EC50 for human recombinant cannabinoid CB1 receptor to EC50 for human recombinant cannabinoid CB2 receptor
Cannabinoid receptor 2 [4] = target: T2, Cannabinoid receptor 2; test: Agonist activity at human recombinant cannabinoid CB2 receptor expressed in MMY23 Saccharomyces cerevisiae assessed as degradation of FDGlu to fluorescein after 24 hrs by spectrofluorimetry relative to HU210; assay type: functional
Cannabinoid receptor 1 [5] = target: T1, Cannabinoid receptor 1; test: Agonist activity at human recombinant cannabinoid CB1 receptor expressed in MMY23 Saccharomyces cerevisiae assessed as degradation of FDGlu to fluorescein after 24 hrs by spectrofluorimetry relative to HU210; assay type: functional
[6] = target: Adenosine receptor A2a (Homo sapiens) (UniProt P29274); test: Binding affinity to human adenosine A2A receptor at 1 uM
[7] = target: Cannabinoid receptor 1 (Rattus norvegicus) (UniProt P20272); test: Agonist activity at cannabinoid CB1 receptor at rat cerebellum by GTPgammaS binding assay relative to HU210; assay type: functional
[8] = target: Adenosine receptor A1 (Homo sapiens) (UniProt P30542); test: Binding affinity to human adenosine A1 receptor at 1 uM
[9] = target: Galanin receptor type 2 (Homo sapiens) (UniProt O43603); test: Binding affinity to human GAL2 receptor at 1 uM
[10] = target: C-X-C chemokine receptor type 2 (Homo sapiens) (UniProt P25025); test: Binding affinity to human CXCR2 receptor at 1 uM
[11] = target: Melatonin receptor type 1A (Homo sapiens) (UniProt P48039); test: Binding affinity to human ML1 receptor at 1 uM
[12] = target: B2 bradykinin receptor (Homo sapiens) (UniProt P30411); test: Binding affinity to human bradykinin B2 receptor at 1 uM
Rattus norvegicus [13] = test: Induction of hypothermia in rat at 130 mg/kg, po after 5 hrs; assay type: organism-based; parameters: dose 130 mg/kg, route oral; conditions: in vivo
[14] = target: Histamine H1 receptor (Homo sapiens) (UniProt P35367); test: Binding affinity to human histamine H1 receptor at 1 uM
[15] = target: Histamine H2 receptor (Homo sapiens) (UniProt P25021); test: Binding affinity to human histamine H2 receptor at 1 uM
[16] = target: Type-1 angiotensin II receptor (Homo sapiens) (UniProt P30556); test: Binding affinity to human AT1 receptor at 1 uM
[17] = target: D(1A) dopamine receptor (Homo sapiens) (UniProt P21728); test: Binding affinity to human dopamine D1 receptor at 1 uM
[18] = target: Substance-K receptor (Homo sapiens) (UniProt P21452); test: Binding affinity to human NK2 receptor at 1 uM
[19] = target: Endothelin-1 receptor (Homo sapiens) (UniProt P25101); test: Binding affinity to human ETA receptor at 1 uM
[20] = target: Melanocortin receptor 4 (Homo sapiens) (UniProt P32245); test: Binding affinity to human MC4 receptor at 1 uM
[21] = Binding affinity to GABA receptor at 1 uM
[22] = target: Muscarinic acetylcholine receptor M3 (Homo sapiens) (UniProt P20309); test: Binding affinity to human muscarinic M3 receptor at 1 uM
Rattus norvegicus [23] = test: Induction of hypothermia in rat at 130 mg/kg, po after 1 to 3 hrs; assay type: organism-based; parameters: dose 130 mg/kg, route oral; conditions: in vivo
[24] = target: Muscarinic acetylcholine receptor M2 (Homo sapiens) (UniProt P08172); test: Binding affinity to human muscarinic M2 receptor at 1 uM
[25] = target: Beta-1 adrenergic receptor (Homo sapiens) (UniProt P08588); test: Binding affinity to human beta-1 adrenergic receptor at 1 uM
[26] = Binding affinity to central benzodiazepine receptor at 1 uM
[27] = Drug level in rat blood at 130 mg/kg, po after 3 hrs; assay type: ADME, organism-based; parameters: dose 130 mg/kg, route oral; conditions: read-out: Drug uptake
[28] = target: D(2) dopamine receptor (Homo sapiens) (UniProt P14416); test: Binding affinity to human dopamine D2S receptor at 1 uM
[29] = target: Alpha-2A adrenergic receptor (Homo sapiens) (UniProt P08913); test: Binding affinity to adrenergic alpha2 receptor at 1 uM
[30] = target: Cholecystokinin receptor type A (Homo sapiens) (UniProt P32238); test: Binding affinity to human CCKA receptor at 1 uM
[31] = target: Muscarinic acetylcholine receptor M1 (Homo sapiens) (UniProt P11229); test: Binding affinity to human muscarinic M1 receptor at 1 uM
[32] = Binding affinity to adrenergic alpha1 receptor at 1 uM
[33] = target: Adenosine receptor A3 (Homo sapiens) (UniProt P0DMS8); test: Binding affinity to human adenosine A3 receptor at 1 uM
Cannabinoid receptor 1 [34] = target: Cannabinoid receptor 1 (Rattus norvegicus, UniProt P20272); test: Agonist activity at cannabinoid CB1 receptor at rat cerebellum by GTPgammaS binding assay; assay type: functional, tissue-based
[35] = target: Muscarinic acetylcholine receptor M4 (Homo sapiens) (UniProt P08173); test: Binding affinity to human muscarinic M4 receptor at 1 uM
[36] = Drug level in rat blood at 130 mg/kg, po after 1 hr; assay type: ADME, organism-based; parameters: dose 130 mg/kg, route oral; conditions: read-out: Drug uptake
[37] = Solubility in simulated intestinal fluid at pH 5; assay type: physicochemical

T1 sequence (P21554 whole entry): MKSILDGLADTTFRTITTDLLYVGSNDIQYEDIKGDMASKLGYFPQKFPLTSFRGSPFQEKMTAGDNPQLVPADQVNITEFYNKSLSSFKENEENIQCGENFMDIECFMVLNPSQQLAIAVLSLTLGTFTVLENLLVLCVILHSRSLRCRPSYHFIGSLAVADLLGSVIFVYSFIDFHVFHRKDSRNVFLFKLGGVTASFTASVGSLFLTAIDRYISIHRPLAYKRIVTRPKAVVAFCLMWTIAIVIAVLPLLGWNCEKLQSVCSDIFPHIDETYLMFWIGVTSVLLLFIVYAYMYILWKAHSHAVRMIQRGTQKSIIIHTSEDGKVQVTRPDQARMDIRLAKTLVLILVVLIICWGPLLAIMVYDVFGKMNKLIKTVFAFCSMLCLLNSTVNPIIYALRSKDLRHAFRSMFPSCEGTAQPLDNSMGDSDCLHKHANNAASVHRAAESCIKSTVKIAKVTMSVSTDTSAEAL
T2 sequence (P34972 whole entry): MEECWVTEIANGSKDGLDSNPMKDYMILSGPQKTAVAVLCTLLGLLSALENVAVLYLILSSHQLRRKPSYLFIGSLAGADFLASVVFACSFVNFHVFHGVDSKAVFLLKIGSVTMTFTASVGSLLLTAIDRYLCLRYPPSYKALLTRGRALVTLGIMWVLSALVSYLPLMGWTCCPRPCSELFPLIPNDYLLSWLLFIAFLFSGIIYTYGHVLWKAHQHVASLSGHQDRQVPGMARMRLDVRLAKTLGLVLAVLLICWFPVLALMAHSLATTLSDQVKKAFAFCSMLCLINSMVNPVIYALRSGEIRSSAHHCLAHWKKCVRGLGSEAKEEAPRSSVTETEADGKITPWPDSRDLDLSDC
Sequence of Histamine H1 receptor (Homo sapiens) (P35367 whole entry): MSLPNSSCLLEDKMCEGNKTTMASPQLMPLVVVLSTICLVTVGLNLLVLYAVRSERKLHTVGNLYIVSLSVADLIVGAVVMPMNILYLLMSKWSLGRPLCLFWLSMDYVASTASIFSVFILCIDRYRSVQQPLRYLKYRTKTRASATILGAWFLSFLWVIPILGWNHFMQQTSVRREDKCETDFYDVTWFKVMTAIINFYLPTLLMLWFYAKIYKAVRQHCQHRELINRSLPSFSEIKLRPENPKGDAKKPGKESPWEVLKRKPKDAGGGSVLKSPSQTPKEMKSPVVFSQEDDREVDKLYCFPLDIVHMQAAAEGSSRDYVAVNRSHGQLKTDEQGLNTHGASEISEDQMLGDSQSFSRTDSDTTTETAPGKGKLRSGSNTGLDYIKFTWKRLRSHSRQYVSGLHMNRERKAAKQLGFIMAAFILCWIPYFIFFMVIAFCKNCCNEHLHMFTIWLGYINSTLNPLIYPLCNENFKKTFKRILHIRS
Sequence of C-X-C chemokine receptor type 2 (Homo sapiens) (P25025 whole entry): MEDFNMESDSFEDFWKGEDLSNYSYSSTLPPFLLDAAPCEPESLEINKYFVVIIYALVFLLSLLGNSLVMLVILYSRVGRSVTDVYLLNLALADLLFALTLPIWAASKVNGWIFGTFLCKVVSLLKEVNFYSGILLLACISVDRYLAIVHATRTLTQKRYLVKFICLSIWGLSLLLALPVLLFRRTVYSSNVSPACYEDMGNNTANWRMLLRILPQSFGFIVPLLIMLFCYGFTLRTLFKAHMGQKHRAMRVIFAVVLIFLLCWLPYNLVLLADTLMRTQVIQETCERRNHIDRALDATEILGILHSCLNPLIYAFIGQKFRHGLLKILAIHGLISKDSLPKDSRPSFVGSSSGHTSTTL
Sequence of B2 bradykinin receptor (Homo sapiens) (P30411 whole entry): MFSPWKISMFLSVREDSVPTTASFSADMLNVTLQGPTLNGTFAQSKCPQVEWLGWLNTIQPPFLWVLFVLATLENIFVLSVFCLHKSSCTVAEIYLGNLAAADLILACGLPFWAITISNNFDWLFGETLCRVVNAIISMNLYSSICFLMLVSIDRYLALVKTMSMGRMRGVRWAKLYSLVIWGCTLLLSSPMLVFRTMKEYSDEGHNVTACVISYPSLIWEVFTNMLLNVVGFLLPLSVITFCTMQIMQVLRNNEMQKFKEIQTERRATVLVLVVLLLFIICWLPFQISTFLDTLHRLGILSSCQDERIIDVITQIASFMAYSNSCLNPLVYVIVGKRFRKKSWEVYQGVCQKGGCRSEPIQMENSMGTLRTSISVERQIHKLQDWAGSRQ
Sequence of Histamine H2 receptor (Homo sapiens) (P25021 whole entry): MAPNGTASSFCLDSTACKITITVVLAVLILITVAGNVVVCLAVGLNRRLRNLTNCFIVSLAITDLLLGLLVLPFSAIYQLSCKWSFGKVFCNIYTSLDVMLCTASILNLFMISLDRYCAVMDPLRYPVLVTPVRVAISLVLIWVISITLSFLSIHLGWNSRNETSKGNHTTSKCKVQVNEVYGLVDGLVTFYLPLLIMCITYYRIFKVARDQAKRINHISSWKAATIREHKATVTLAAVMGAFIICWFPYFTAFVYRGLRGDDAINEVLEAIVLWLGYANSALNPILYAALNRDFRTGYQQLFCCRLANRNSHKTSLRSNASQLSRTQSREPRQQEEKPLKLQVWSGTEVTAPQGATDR
Sequence of Muscarinic acetylcholine receptor M4 (Homo sapiens) (P08173 whole entry): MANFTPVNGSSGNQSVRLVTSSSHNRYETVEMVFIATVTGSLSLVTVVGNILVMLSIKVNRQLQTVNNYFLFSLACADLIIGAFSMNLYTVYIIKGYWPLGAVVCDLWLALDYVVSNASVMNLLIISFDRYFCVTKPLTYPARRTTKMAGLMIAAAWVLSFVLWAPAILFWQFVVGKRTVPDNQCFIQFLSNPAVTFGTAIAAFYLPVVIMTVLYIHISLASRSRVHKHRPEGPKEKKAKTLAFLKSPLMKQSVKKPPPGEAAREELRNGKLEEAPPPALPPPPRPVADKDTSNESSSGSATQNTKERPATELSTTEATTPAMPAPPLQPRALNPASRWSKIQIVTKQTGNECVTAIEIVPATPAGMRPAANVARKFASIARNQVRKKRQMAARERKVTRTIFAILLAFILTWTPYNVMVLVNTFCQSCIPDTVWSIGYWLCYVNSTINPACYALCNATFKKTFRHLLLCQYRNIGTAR
Sequence of Melatonin receptor type 1A (Homo sapiens) (P48039 whole entry): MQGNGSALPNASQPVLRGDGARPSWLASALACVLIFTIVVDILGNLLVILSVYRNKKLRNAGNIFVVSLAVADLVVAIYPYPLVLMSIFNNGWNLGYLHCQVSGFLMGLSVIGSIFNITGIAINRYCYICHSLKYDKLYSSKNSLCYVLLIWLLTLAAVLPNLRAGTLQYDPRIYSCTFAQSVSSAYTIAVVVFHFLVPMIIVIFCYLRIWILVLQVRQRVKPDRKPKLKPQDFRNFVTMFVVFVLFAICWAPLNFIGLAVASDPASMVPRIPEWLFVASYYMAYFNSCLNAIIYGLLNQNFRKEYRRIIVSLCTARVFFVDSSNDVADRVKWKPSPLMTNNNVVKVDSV
Sequence of D(1A) dopamine receptor (Homo sapiens) (P21728 whole entry): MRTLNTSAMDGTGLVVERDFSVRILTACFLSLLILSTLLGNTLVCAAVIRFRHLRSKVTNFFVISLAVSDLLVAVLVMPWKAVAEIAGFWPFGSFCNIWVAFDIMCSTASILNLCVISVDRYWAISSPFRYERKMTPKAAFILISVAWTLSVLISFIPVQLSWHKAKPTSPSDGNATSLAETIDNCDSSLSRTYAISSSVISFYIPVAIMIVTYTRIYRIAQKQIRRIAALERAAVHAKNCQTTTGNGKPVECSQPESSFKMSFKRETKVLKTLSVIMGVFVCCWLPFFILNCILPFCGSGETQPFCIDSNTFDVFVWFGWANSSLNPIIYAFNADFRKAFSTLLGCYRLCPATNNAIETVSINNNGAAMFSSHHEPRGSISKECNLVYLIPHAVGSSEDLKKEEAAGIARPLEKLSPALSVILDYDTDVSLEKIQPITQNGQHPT
Sequence of Muscarinic acetylcholine receptor M1 (Homo sapiens) (P11229 whole entry): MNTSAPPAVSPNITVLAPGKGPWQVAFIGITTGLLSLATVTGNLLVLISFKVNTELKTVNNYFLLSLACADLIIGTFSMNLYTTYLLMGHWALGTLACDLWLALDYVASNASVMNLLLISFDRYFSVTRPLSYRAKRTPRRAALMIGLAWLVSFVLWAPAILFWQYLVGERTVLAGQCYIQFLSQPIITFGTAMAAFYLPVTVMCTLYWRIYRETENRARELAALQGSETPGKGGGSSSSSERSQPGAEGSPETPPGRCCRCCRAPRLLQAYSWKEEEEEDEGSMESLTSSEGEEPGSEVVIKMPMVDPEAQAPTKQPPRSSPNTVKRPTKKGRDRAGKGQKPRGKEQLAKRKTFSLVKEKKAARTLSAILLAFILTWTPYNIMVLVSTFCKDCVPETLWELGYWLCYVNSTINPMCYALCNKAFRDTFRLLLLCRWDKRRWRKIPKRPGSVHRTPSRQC
Sequence of Galanin receptor type 2 (Homo sapiens) (O43603 whole entry): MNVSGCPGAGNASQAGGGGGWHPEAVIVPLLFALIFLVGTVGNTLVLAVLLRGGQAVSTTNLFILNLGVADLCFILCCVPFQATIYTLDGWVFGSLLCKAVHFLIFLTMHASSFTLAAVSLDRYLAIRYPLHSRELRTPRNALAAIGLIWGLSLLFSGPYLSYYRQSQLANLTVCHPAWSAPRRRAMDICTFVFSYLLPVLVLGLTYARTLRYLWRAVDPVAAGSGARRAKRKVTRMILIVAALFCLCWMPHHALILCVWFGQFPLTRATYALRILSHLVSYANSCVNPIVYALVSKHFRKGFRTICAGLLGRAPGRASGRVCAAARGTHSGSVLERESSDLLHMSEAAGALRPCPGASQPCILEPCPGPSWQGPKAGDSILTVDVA
Sequence of Adenosine receptor A1 (Homo sapiens) (P30542 whole entry): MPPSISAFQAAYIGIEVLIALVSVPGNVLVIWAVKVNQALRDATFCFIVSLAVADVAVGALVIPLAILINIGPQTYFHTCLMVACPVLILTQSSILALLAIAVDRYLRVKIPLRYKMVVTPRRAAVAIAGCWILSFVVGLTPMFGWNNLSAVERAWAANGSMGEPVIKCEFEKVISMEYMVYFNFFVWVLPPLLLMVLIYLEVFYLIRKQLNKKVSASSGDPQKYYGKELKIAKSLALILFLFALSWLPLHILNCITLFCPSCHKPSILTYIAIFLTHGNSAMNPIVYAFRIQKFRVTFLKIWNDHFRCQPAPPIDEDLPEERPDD

## Cc1c[nH]c2c(Nc3ccccc3Cl)ncc(C(=O)N3CCOCC3)c12
Cannabinoid receptor 1 [1]
  Activity: inactive
Cannabinoid receptor 2 [2]
  EC50: 0.123 µM
Cannabinoid receptor 1 [3]
  EC50: 15.8 µM
Homo sapiens
  Ratio EC50: > 100
Cannabinoid receptor 2 [4]
  Efficacy: 82%
Cannabinoid receptor 1 [5]
  Efficacy: 56%

## Cc1c[nH]c2c(Nc3cccc(Cl)c3)ncc(C(=O)N3CCC3)c12
Cannabinoid receptor 2 [2]
  EC50: 0.504 µM
Cannabinoid receptor 1 [3]
  EC50: > 30 µM
Cannabinoid receptor 2 [4]
  Efficacy: 66%

## COc1cccc(Nc2ncc(C(=O)N3CCOCC3)c3c(C)c[nH]c23)c1
Cannabinoid receptor 1 [1]
  Activity: inactive
Cannabinoid receptor 2 [2]
  EC50: 0.048 µM
Cannabinoid receptor 1 [3]
  EC50: 25.1 µM
Cannabinoid receptor 2 [4]
  Efficacy: 83%
Cannabinoid receptor 1 [5]
  Efficacy: 69%

## CCC(CC)Nc1ncc(C(=O)N2CCOCC2)c2c(C)c[nH]c12
Cannabinoid receptor 2 [2]
  EC50: 4.67 µM
Cannabinoid receptor 1 [3]
  EC50: > 30 µM
Cannabinoid receptor 2 [4]
  Efficacy: 59%

## Cc1c[nH]c2c(Nc3cccc(Cl)c3)ncc(C(=O)NC3CCOCC3)c12
Cannabinoid receptor 2 [2]
  EC50: 1.7 µM
Cannabinoid receptor 1 [3]
  EC50: > 30 µM
Cannabinoid receptor 2 [4]
  Efficacy: 79%

## Cc1c[nH]c2c(Nc3cccc(Cl)c3)ncc(C(=O)NCC3CCOCC3)c12
Cannabinoid receptor 2 [2]
  EC50: 0.265 µM
Cannabinoid receptor 1 [3]
  EC50: > 30 µM
Cannabinoid receptor 2 [4]
  Efficacy: 95%

## Cn1ccc2c(Nc3cccc(Cl)c3)ncc(Br)c21
[6]
  Activity: < 10%
[7]
  Efficacy: 59%
[8]
  Activity: < 10%
[9]
  Activity: < 10%
[10]
  Activity: < 10%
[11]
  Activity: < 10%
[12]
  Activity: < 10%
Rattus norvegicus [13]
  Activity: Toxic
[14]
  Activity: < 10%
[15]
  Activity: < 10%
[16]
  Activity: < 10%
[17]
  Activity: < 10%
[18]
  Activity: < 10%
[19]
  Activity: < 10%
[20]
  Activity: < 10%
[21]
  Activity: < 10%
[22]
  Activity: < 10%
Rattus norvegicus [23]
  Activity: Non-toxic
[24]
  Activity: < 10%
[25]
  Activity: < 10%
[26]
  Activity: < 10%
[27]
  concentration at 3 h: 14.7 µM
[28]
  Activity: < 10%
[29]
  Activity: 25%
[30]
  Activity: < 10%
[31]
  Activity: < 10%
[32]
  Activity: < 10%
[33]
  Activity: < 10%
Cannabinoid receptor 1 [34]
  EC50: 2.51 µM
[35]
  Activity: < 10%
[36]
  concentration at 1 h: 10.9 µM

## Cc1c[nH]c2c(Nc3cccc(Cl)c3)ncc(C(=O)N3CCCC3)c12
Cannabinoid receptor 2 [2]
  EC50: 0.153 µM
Cannabinoid receptor 1 [3]
  EC50: > 30 µM
Cannabinoid receptor 2 [4]
  Efficacy: 68%

## O=C(NCC1CCOCC1)c1cnc(Nc2ccc(Cl)cc2Cl)nc1C(F)(F)F [GW842166X]
Cannabinoid receptor 1 [3]
  EC50: > 30 µM
[37]
  solubility: 10 µg/mL (≈ 22.3 µM)

## CCCCCCC(C)(C)c1cc(O)c2c(c1)OC(C)(C)[C@@H]1CC=C(CO)C[C@@H]21
Cannabinoid receptor 1 [3]
  EC50: 0.04 µM
